# Active and inactive are the calls of the source.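 The calls were made as follows: active = over 30% block of the TRPC6 ion channel at some tested dose, plus a fitted dose-response curve; inactive = no block at any dose, or no fitted curve.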
# Target: Short transient receptor potential channel 6 (Mus musculus) (UniProt Q61143)
# Experiment: mouse TRPC6 channel blockers, concentration series – HEK293 cells, membrane potential dye, IC50, selectivity assay for selective TRPC4 inhibitor project, dose response (AID 492987)
# Settings: at 20 µM (top of the series)
# Chain of Short transient receptor potential channel 6 (Mus musculus) (Q61143 whole entry, looked up): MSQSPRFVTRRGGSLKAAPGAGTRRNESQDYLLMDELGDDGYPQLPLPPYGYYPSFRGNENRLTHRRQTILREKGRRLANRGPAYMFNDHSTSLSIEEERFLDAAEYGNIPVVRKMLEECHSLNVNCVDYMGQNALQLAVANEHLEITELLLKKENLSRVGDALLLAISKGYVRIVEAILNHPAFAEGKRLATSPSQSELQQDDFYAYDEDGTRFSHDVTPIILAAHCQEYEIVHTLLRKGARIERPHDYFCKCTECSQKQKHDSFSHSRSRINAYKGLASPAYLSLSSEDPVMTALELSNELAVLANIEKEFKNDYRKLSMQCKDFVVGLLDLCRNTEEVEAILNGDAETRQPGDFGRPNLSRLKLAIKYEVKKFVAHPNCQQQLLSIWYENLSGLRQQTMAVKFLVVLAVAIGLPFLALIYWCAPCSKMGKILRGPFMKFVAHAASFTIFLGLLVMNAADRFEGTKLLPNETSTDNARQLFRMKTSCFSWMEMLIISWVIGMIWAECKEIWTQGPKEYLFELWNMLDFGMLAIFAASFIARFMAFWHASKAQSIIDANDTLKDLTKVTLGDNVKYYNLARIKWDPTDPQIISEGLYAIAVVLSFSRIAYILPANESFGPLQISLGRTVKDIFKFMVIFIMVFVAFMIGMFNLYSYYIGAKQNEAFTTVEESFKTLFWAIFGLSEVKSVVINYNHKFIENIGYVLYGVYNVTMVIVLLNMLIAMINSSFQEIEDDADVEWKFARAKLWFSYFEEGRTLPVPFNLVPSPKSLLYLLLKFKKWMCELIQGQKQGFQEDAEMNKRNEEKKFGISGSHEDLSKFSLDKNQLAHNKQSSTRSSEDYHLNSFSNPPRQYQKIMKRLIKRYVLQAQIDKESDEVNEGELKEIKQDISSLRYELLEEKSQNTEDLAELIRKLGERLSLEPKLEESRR
row,Compound,"fluorescence ratio, lower = inhibition"
1,FC(F)(F)c1cc(N2CCCCC2)nc2ccccc12,inactive
2,Cc1cc(N2CCN(c3ncccn3)CC2)nc2ccccc12,inactive
3,Cc1cc(N2CCN(c3ccccc3C#N)CC2)nc2ccccc12,inactive
4,Cc1cc(N2CCN(CC3CCCO3)CC2)nc2ccccc12 (stereo not given),inactive
5,Cc1ccnc(N2CCCC2)c1,inactive
6,Cc1cc(N2CCOCC2)nc2ccccc12,inactive
7,COc1ccc(N2CCN(c3cc(C)c4ccccc4n3)CC2)cc1,inactive
8,FC(F)(F)c1cc(N2CCCCCC2)nc2ccccc12,inactive
9,Cc1ccnc(N2CCCCC2)c1,inactive
10,Cc1cc(N(C)CCN(C)C)nc2ccccc12,inactive
11,CCc1ccc2nc(N3CCCCCC3)cc(C)c2c1,inactive
12,CCN(CC)c1cc(C)c2ccccc2n1,inactive
13,Cc1ccnc(N2CCCCCC2)n1,inactive
14,Cc1cc(N2CC(C)CC(C)C2)nc2ccccc12 (stereo not given),inactive
15,Cc1cc(N2CCC(C)CC2)nc2ccccc12,inactive
16,c1ccc(-c2cc(N3CCCCCC3)nc3ccccc23)cc1,inactive
17,Cc1ccnc(N2CCCC2)n1,inactive
18,COc1ccccc1N1CCN(c2cc(C)c3ccccc3n2)CC1,inactive
19,Cc1cc(N2CCOc3ccccc32)nc2ccccc12,inactive
20,Cc1cc(N2CCCCC2)nc2c(C)cccc12,inactive
21,c1ccc(-c2cc(N3CCCCC3)nc3ccccc23)cc1,inactive
22,Cc1ccnc(N2CCCCCC2)c1,inactive
23,Cc1cc(N2CCN(C)CC2)nc2ccccc12,inactive
24,Cc1cc(N2CCCCCC2)nc2c(C)cccc12,inactive
25,Cc1cc(N2CCCC(O)C2)nc2ccccc12 (stereo not given),inactive
26,COCCN(C)c1cc(C)c2ccccc2n1,inactive
27,c1ccc(-c2cc(N3CCCC3)nc3ccccc23)cc1,inactive
28,Cc1cc(N2CCCCCC2)nc2ccc(F)cc12,inactive
29,Cc1ccnc(N2CCCCC2)n1,inactive

# Same assay, conditions: membrane potential dye fluorescence
row,Compound,IC50
1,Cc1cc(N2CCCCC2)nc2ccccc12,17.9 µM
